Laboratory results taken from patent publication US11312727B1, “Macrocyclic flu endonuclease inhibitors” (Janssen BioPharma, Inc., priority 2018, dated 2022).
pEC50: −log10 of the molar value.

What was measured:
[1] = tested on: Influenza strain A549 A/WSN/33 (H1N1); assay: microbe, parasite or virus in culture; type: cell-based; settings: Influenza A virus, A549, 20 h, A549 cells, influenza A/WSN/33 (H1N1), 20 hours incubation; read-out: A549_A(H1N1) EC50
in vitro = settings: human, CC50, uninfected A549 cells, CellTiter-Glo

| Structure (SMILES) | pEC50 [1] | CC50 (in vitro) [nM] |
| --- | --- | --- |
| CC[C@H]1/C=C/COc2c(F)cccc2[C@@H](c2ccccn2)N2CN1C(=O)c1c(O)c(=O)ccn12 (single isomer, unassigned) [Compound 154AB, (9*S,18*S,*E)-9-ethyl-4-fluoro-12-hydroxy-18-(pyridin-2-yl)-6,9-dihydro-18H-10,17-methanobenzo[b]pyrido[1,2-f][1]oxa[5,6,9]triazacyclotridecine-11,13-dione] | < 7.30 | > 100 |
| O=C1c2c(O)c(=O)ccn2N2CN1C/C=C/COc1cc(F)c(F)c3c1[C@H]2c1ccccc1SC3 (single isomer, unassigned) [Compound 140B, (17a*S,*E)-24,25-difluoro-12-hydroxy-2,6,9,17a-tetrahydro-3,4-(epiprop[1]en[1]yl[3]ylidene)-10,17-methanobenzo[6,7]thiepino[4,5-c]pyrido[1,2-f][1]oxa[5,6,9]triazacyclotridecine-11,13-dione] | 9.52 | > 50 |
| O=C1c2c(O)c(=O)ccn2N2CN1[C@@H](C1CC1)/C=C/COc1c(ccc(F)c1F)[C@H]2c1ccccc1 (single isomer, unassigned) [Compound 152BA, (9*S,18*R,*E)-9-cyclopropyl-3,4-difluoro-12-hydroxy-18-phenyl-6,9-dihydro-18H-10,17-methanobenzo[b]pyrido[1,2-f][1]oxa[5,6,9]triazacyclotridecine-11,13-dione] | 8.89 | > 200 |
| O=C1c2c(O)c(=O)ccn2N2CN1CC[C@@H]1C[C@H]1COc1cccc3c1[C@H]2c1ccccc1SC3 (single isomer, unassigned) [Compound 131BA, (1*S,13*S,15*R)-7-hydroxy-17-oxa-24-thia-2,3,10-triazaheptacyclo[16.12.1.12,10.03,8.013,15.022,31.025,30]dotriaconta-4,18,20,22(31),25(30),26,28-heptaene-6,9-dione] | < 7.00 | > 200 |
| O=C1c2c(O)c(=O)ccn2N2CN1C/C=C\COc1cccc3c1[C@H]2c1ccccc1OC3 (single isomer, unassigned) [Compound 53A, (21a*R,Z)-16-hydroxy-6,10,13,21a-tetrahydro-7,8-(epiprop[1]en[1]yl[3]ylidene)-14,21-methanobenzo[6,7]oxepino[4,5-c]pyrido[1,2-f][1]oxa[5,6,9]triazacyclotridecine-15,17-dione] | 7.47 | > 2000 |
| C[C@@H]1C/C=C/COc2c(F)cccc2[C@@H](c2ccccc2)N2CN1C(=O)c1c(O)c(=O)ccn12 (single isomer, unassigned) [Compound 100AB, (2*R,9*R,*E)-33-fluoro-15-hydroxy-9-methyl-2-phenyl-12,13,14,16-tetrahydro-11H-4-oxa-1(1,3)-pyrido[2,1-f][1,2,4]triazina-3(1,2)-benzenacyclononaphan-6-ene-14,16-dione] | 8.68 | > 200 |
| C[C@@H]1N2C/C=C/COc3c(F)cccc3[C@@H](c3ccccc3)N1n1ccc(=O)c(O)c1C2=O (single isomer, unassigned) [Compound 91A, (18*R,19*R,E)-4-fluoro-12-hydroxy-19-methyl-18-phenyl-6,9-dihydro-18H-10,17-methanobenzo[b]pyrido[1,2-f][1]oxa[5,6,9]triazacyclotridecine-11,13-dione] | 8.52 | > 1000 |
| C/C1=C/COc2ccccc2[C@H](c2ccccc2)N2CN(C1)C(=O)c1c(O)c(=O)ccn12 (single isomer, unassigned) [Compound 38B, (18*S,Z)-12-hydroxy-8-methyl-18-phenyl-6,9-dihydro-18H-10,17-methanobenzo[b]pyrido[1,2-f][1]oxa[5,6,9]triazacyclotridecine-11,13-dione] | 7.59 | > 2000 |
| COC[C@H]1/C=C/COc2c(ccc(F)c2F)[C@H](c2ccccc2)N2CN1C(=O)c1c(O)c(=O)ccn12 (single isomer, unassigned) [Compound 153AB, (9*R,18*S,*E)-3,4-difluoro-12-hydroxy-9-(methoxymethyl)-18-phenyl-6,9-dihydro-18H-10,17-methanobenzo[b]pyrido[1,2-f][1]oxa[5,6,9]triazacyclotridecine-11,13-dione] | < 7.30 | > 100 |
| C[C@@H]1/C=C/COc2cc(F)c(F)c3c2[C@H](c2ccccc2SC3)N2CN1C(=O)c1c(O)c(=O)ccn12 (single isomer, unassigned) [Compound 162A, (9*R,17a*R,*E)-24,25-difluoro-12-hydroxy-9-methyl-2,6,9,17a-tetrahydro-3,4-(epiprop[1]en[1]yl[3]ylidene)-10,17-methanobenzo[6,7]thiepino[4,5-c]pyrido[1,2-f][1]oxa[5,6,9]triazacyclotridecine-11,13-dione] | < 7.30 | > 100 |
| O=C1c2c(O)c(=O)ccn2N2CN1CC/C=C\c1cccc3c1C2c1ccccc1CC3 (stereo not drawn) [Compound 73, (11*Z)-6-hydroxy-10,16,17,21b-tetrahydro-9H-1,8-methanobenzo[4,5]cyclohepta[1,2,3-op]pyrido[1,2-c][2,3,6]benzotriazacyclododecine-5,7-dione] | 7.80 | > 2000 |
| O=C1c2c(O)c(=O)ccn2N2CN1C[C@@H]1C[C@H]1COc1c(ccc(F)c1F)[C@H]2c1ccccc1 (single isomer, unassigned) [Compound 139BB, (1a*R,8*R,17a*R)-4,5-difluoro-14-hydroxy-8-phenyl-1a,2,17,17a-tetrahydro-1H,8H-9,16-methanobenzo[b]cyclopropa[k]pyrido[1,2-f][1]oxa[5,6,9]triazacyclotridecine-13,15-dione] | < 7.60 | > 50 |
| CC[C@@H]1/C=C/COc2c(F)cccc2[C@H](c2ccccn2)N2CN1C(=O)c1c(O)c(=O)ccn12 (single isomer, unassigned) [Compound 154BA, (9*R,18*R,*E)-9-ethyl-4-fluoro-12-hydroxy-18-(pyridin-2-yl)-6,9-dihydro-18H-10,17-methanobenzo[b]pyrido[1,2-f][1]oxa[5,6,9]triazacyclotridecine-11,13-dione] | 8.17 | > 100 |
| O=C1c2c(O)c(=O)ccn2N2CN1[C@@H](C1CC1)/C=C/COc1c(ccc(F)c1F)[C@@H]2c1ccccc1 (single isomer, unassigned) [Compound 152AA, (9*S,18*S,*E)-9-cyclopropyl-3,4-difluoro-12-hydroxy-18-phenyl-6,9-dihydro-18H-10,17-methanobenzo[b]pyrido[1,2-f][1]oxa[5,6,9]triazacyclotridecine-11,13-dione] | < 7.30 | > 100 |
| C[C@@H]1/C=C/COc2c(F)cccc2[C@H](c2ccccc2)N2CN1C(=O)c1c(O)c(=O)ccn12 (single isomer, unassigned) [Compound 141BA, (9*R,18*S,E)-4-fluoro-12-hydroxy-9-methyl-18-phenyl-6,9-dihydro-18H-10,17-methanobenzo[b]pyrido[1,2-f][1]oxa[5,6,9]triazacyclotridecine-11,13-dione] | 6.51 | > 20000 |
| O=C1c2c(O)c(=O)ccn2N2CN1C/C=C/COc1cccc3c1[C@H]2c1ccccc1SC3 [Compound 46D, (17S,E)-12-hydroxy-2,6,9,17a-tetrahydro-3,4-(epiprop[1]en[1]yl[3]ylidene)-10,17-methanobenzo[6,7]thiepino[4,5-c]pyrido[1,2-f][1]oxa[5,6,9]triazacyclotridecine-11,13-dione] | 9.00 | > 200 |
| O=C1c2c(O)c(=O)ccn2N2CN1C1(/C=C/COc3c(F)cccc3[C@@H]2c2ccccc2)CCC1 (single isomer, unassigned) [Compound 145B, (18′*S,E)-4′-fluoro-12′-hydroxy-18′-phenyl-6′H,18′H-spiro[cyclobutane-1,9′-[10,17]methanobenzo[b]pyrido[1,2-f][1]oxa[5,6,9]triazacyclotridecine]-11′,13′-dionene] | 6.51 | > 10000 |
| O=C1c2c(O)c(=O)ccn2N2CN1C/C=C/CCc1cc(F)ccc1[C@H]2c1ccccn1 (single isomer, unassigned) [Compound 57B, (16*S,E)-13-fluoro-4-hydroxy-16-(pyridin-2-yl)-7,10,11,16-tetrahydro-6,17-methanobenzo[k]pyrido[1,2-b][1,2,5]triazacyclotridecine-3,5-dione] | < 6.00 | > 2000 |
| C[C@@H]1/C=C\COc2cc(F)c(F)c3c2[C@H](c2ccccc2SC3)N2CN1C(=O)c1c(O)c(=O)ccn12 (single isomer, unassigned) [Compound 162C, (13*R,21a*R,*Z)-24,25-difluoro-16-hydroxy-13-methyl-6,10,13,21a-tetrahydro-7,8-(epiprop[1]en[1]yl[3]ylidene)-14,21-methanobenzo[6,7]thiepino[4,5-c]pyrido[1,2-f][1]oxa[5,6,9]triazacyclotridecine-15,17-dione] | 8.00 | > 100 |
| CC[C@@H]1/C=C/COc2c(ccc(F)c2F)[C@@H](c2ccccn2)N2CN1C(=O)c1c(O)c(=O)ccn12 (single isomer, unassigned) [Compound 160AB, (9*R,18*S,*E)-9-ethyl-3,4-difluoro-12-hydroxy-18-(pyridin-2-yl)-6,9-dihydro-18H-10,17-methanobenzo[b]pyrido[1,2-f][1]oxa[5,6,9]triazacyclotridecine-11,13-dione] | 8.55 | > 100 |
| O=C1c2c(O)c(=O)ccn2N2CN1C/C=C\COc1cccc3c1[C@H]2c1ccccc1CC3 (single isomer, unassigned) [Compound 33A, (19b*R,Z)-4-hydroxy-7,10,15,19b-tetrahydro-14H-13,12-(epiprop[1]en[1]yl[3]ylidene)-6,20-methanobenzo[3,4]cyclohepta[1,2-c]pyrido[1,2-f][1]oxa[5,6,9]triazacyclotridecine-3,5-dione] | < 6.00 | > 2000 |
